Results on 20 molecules are retold here after patent publication US7786141B2 (Vertex Pharmaceuticals Incorporated, priority 2004, dated 2010).

Assay [1] deals with T1, M1 muscarinic receptor (Homo sapiens, UniProt P11229).
T1 construct: expressed in transfected cells; host or cells: CHO (M1-CHO)
T1 sequence (P11229 1-460): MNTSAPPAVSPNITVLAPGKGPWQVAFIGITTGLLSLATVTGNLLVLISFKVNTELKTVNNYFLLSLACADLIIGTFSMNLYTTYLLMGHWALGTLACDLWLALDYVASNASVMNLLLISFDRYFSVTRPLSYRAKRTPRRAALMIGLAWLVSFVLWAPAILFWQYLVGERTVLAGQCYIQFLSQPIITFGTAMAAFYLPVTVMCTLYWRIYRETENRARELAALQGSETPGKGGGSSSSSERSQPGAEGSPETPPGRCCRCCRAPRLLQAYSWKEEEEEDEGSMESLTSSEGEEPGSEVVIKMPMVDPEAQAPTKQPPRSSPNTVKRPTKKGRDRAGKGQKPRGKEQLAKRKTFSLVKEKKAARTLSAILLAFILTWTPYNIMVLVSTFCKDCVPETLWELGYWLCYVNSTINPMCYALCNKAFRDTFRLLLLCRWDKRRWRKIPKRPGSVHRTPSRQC
As to the kind of experiment: Functional mobilization of intracellular calcium (FLIPR) in M1-CHO cells. Type of assay: cell-based. To be noted: M1 receptor, calcium mobilization; for Emax: read-out: M1 Efficacy. In short, it runs like this: (§1)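 Measured via Fluo-3 fluorescence on a FLIPR, CHO cells with either muscarinic subtype received compound in 0.5% DMSO. Antagonism was assessed after 15 min pre-incubation followed by carbachol at each subtype's EC80; agonism from compound addition alone.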
A general note: Calcium assays in cells follow changes in intracellular calcium, usually with a dye or a luminescent sensor.

Assay [2] concerns the target T2, M4 muscarinic receptor (Homo sapiens, UniProt P08173).
T2 construct: expressed in transfected cells; host or cells: CHO (M4-CHO)
T2 sequence (P08173 1-479): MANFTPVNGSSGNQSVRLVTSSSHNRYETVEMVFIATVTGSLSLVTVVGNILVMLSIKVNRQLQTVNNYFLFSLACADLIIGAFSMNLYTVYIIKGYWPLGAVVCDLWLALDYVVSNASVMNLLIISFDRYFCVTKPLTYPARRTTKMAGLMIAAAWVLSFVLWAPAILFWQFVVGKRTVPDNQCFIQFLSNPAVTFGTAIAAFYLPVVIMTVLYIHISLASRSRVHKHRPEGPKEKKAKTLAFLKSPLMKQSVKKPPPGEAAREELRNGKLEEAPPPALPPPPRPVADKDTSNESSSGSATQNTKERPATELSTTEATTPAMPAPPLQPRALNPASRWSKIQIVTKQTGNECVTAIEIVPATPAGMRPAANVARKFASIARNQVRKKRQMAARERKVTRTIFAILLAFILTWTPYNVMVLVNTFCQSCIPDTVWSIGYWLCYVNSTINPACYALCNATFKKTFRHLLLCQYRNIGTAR
Briefly: Functional mobilization of intracellular calcium (FLIPR) in M4-CHO cells. Type of assay: cell-based. To be noted: M4 receptor, calcium mobilization; for Emax: read-out: M4 Efficacy. The method in brief: as §1

`CC(=O)NC1CC2(CCN(C[C@H]3C[C@H]4C=C[C@H]3C4)CC2)c2ccccc21` (some centres unmarked) [compound 213]: in assay [1], the “M1 Activity” value was “xx (activity was measured to be between 0.1 μM and 1.0 μM)”; the Emax was in the range of 65 to 85%. Besides, in assay [2], the “M4 Activity” value is listed as “x (activity was measured to be greater than 1.0 μM)” and the Emax is less than 65%.

For the molecule `CCOC(=O)N1C2CCC1CC(N1CCC3(CC1)CN(C(=O)C1CC1)c1ccc(F)cc13)C2` (centres unmarked) [compound 214], in assay [1], the “M1 Activity” value was “x (activity was measured to be greater than 1.0 μM)” and the Emax is less than 65%. For the same molecule, in assay [2], the “M4 Activity” value was “x (activity was measured to be greater than 1.0 μM)” and the Emax was less than 65%.

As for `COCCOC(=O)N1C2CCC1CC(N1CCC3(CC1)CN(C(=O)O[C@@H]1CCOC1)c1ccc(F)cc13)C2` (some centres unmarked) [compound 216], in assay [1], the “M1 Activity” value was “xxx (activity was measured to be less than 0.1 μM)” and the “M1 Efficacy” value is recorded as “xxx (efficacy was calculated to be greater than 85%)”. Further, in assay [2], the “M4 Activity” value was “x (activity was measured to be greater than 1.0 μM)” and the “M4 Efficacy” value is “x (efficacy was calculated to be less than 65%)”.

Turning to `O=C(OC1CCC1)N1C2CCC1CC(N1CCC3(CC1)C(=O)Nc1ccccc13)C2` (centres unmarked) [compound 217], in assay [1], the “M1 Activity” value is “xx (activity was measured to be between 0.1 μM and 1.0 μM)”; the Emax was less than 65%. Further, in assay [2], the “M4 Activity” value is recorded as “x (activity was measured to be greater than 1.0 μM)” and the Emax is less than 65%.

As for `CCNC(=O)N1C2CCC1CC(N1CCC3(CC1)COc1ccc(F)cc13)C2` (centres unmarked) [compound 219], in assay [1], the “M1 Activity” value was “x (activity was measured to be greater than 1.0 μM)” and the Emax was 65 to 85%. Moreover, in assay [2], the “M4 Activity” value is “x (activity was measured to be greater than 1.0 μM)” and the Emax was less than 65%.

For the molecule `CCCCOC(=O)N1CC2(CCN(C3CCN(C(=O)OCC)CC3)CC2)c2cc(F)ccc21` [compound 220], in assay [1], the “M1 Activity” value was “x (activity was measured to be greater than 1.0 μM)” and the Emax lay within 65 to 85%. In addition, in assay [2], the “M4 Activity” value is “x (activity was measured to be greater than 1.0 μM)” and the Emax is less than 65%.

`CCOC(=O)N1CCC(N2CCC3(CC2)CN(C(C)=O)c2ccc(-c4ccc(C(C)=O)cc4)cc23)CC1` [compound 221]: in assay [1], the “M1 Activity” value is “xx (activity was measured to be between 0.1 μM and 1.0 μM)”; the Emax was 65 to 85%. In assay [2], the “M4 Activity” value was “x (activity was measured to be greater than 1.0 μM)” and the Emax is less than 65%.

For `CCOC(=O)N1C2CCC1CC(N1CCC3(CC1)CN(C(=O)c1ccc(F)cc1)c1ccc(F)cc13)C2` (centres unmarked) [compound 222], in assay [1], the “M1 Activity” value was “x (activity was measured to be greater than 1.0 μM)” and the Emax is less than 65%. In assay [2], the “M4 Activity” value was “x (activity was measured to be greater than 1.0 μM)” and the Emax is less than 65%.

Regarding `CCOC(=O)N1CCC(N2CCC3(CC2)CN(C(=O)N(CC)CC)c2ccc(F)cc23)CC1` [compound 223], in assay [1], the “M1 Activity” value is given as “x (activity was measured to be greater than 1.0 μM)” and the Emax was less than 65%. In assay [2], the “M4 Activity” value was “x (activity was measured to be greater than 1.0 μM)” and the Emax is less than 65%.

As for `Clc1ccc2c(c1)C1(CCN(C3CC4CCC3C4)CC1)CN2` (centres unmarked) [compound 224], in assay [1], the “M1 Activity” value is recorded as “x (activity was measured to be greater than 1.0 μM)” and the Emax is 65 to 85%. In assay [2], the “M4 Activity” value is reported as “x (activity was measured to be greater than 1.0 μM)” and the Emax was less than 65%.

On to `CCOC(=O)N1CCC(N2CCC3(CC2)CN(C(C)=O)c2ccc(OC(F)(F)F)cc23)CC1` [compound 225], for which, in assay [1], the “M1 Activity” value was “x (activity was measured to be greater than 1.0 μM)” and the Emax was less than 65%. Also, in assay [2], the “M4 Activity” value is on record as “x (activity was measured to be greater than 1.0 μM)” and the Emax is less than 65%.

In the case of `CC(=O)N1CC2(CCN(C3CCC(C(C)C)CC3)CC2)c2cc(F)ccc21` (centres unmarked) [compound 226], in assay [1], the “M1 Activity” value is recorded as “x (activity was measured to be greater than 1.0 μM)” and the Emax is less than 65%. Moreover, in assay [2], the “M4 Activity” value is “x (activity was measured to be greater than 1.0 μM)” and the Emax is less than 65%.

As for `CS(=O)(=O)N[C@@H]1CC2(CCN(C[C@H]3C[C@H]4CC[C@H]3C4)CC2)c2ccccc21` [compound 227], in assay [1], the “M1 Activity” value is listed as “xxx (activity was measured to be less than 0.1 μM)” and the Emax is more than 85%. In assay [2], the “M4 Activity” value is given as “xxx (activity was measured to be less than 0.1 μM)” and the Emax is more than 85%.

For `CCOC(=O)C1CCC(N2CCC3(CC2)CN(C(C)=O)c2ccc(F)cc23)CC1` (centres unmarked) [compound 228], in assay [1], the “M1 Activity” value was “x (activity was measured to be greater than 1.0 μM)” and the Emax is less than 65%. Also, in assay [2], the “M4 Activity” value is “x (activity was measured to be greater than 1.0 μM)” and the Emax is less than 65%.

Turning to `CCOC(=O)N1CCC(N2CCC3(CC2)CN(CCC(=O)CC)c2ccc(F)cc23)CC1` [compound 229], in assay [1], the “M1 Activity” value is “xx (activity was measured to be between 0.1 μM and 1.0 μM)”; the Emax was less than 65%. Besides, in assay [2], the “M4 Activity” value is on record as “xxx (activity was measured to be less than 0.1 μM)” and the Emax is more than 85%.

Take `C#CCCOC(=O)N1C2CCC1CC(N1CCC3(CC1)CN(C(=O)N(C)C)c1ccc(F)cc13)C2` (centres unmarked) [compound 230]: in assay [1], the “M1 Activity” value is given as “x (activity was measured to be greater than 1.0 μM)” and the Emax was less than 65%. In addition, in assay [2], the “M4 Activity” value was “xx (activity was measured to be between 0.1 μM and 1.0 μM)”; the Emax was more than 85%.

With `CCCNC(=O)N1C2CCC1CC(N1CCC3(CC1)COc1ccc(F)cc13)C2` (centres unmarked) [compound 231], in assay [1], the “M1 Activity” value is given as “x (activity was measured to be greater than 1.0 μM)” and the Emax fell in the range of 65 to 85%. In addition, in assay [2], the “M4 Activity” value is “x (activity was measured to be greater than 1.0 μM)” and the Emax is more than 85%.

As to `Cc1ccc2c(c1)C1(CCN(C3CC4CCC3C4)CC1)CN2S(C)(=O)=O` (centres unmarked) [compound 232], in assay [1], the “M1 Activity” value was “xx (activity was measured to be between 0.1 μM and 1.0 μM)”; the Emax was less than 65%. In assay [2], the “M4 Activity” value is “xxx (activity was measured to be less than 0.1 μM)” and the Emax was more than 85%.

`Cc1cc(C(=O)N2CC3(CCN(C4CC5CCC(C4)N5C(=O)O[C@@H]4CCOC4)CC3)c3cc(F)ccc32)nn1C` (some centres unmarked) [compound 233]: in assay [1], the “M1 Activity” value is given as “xxx (activity was measured to be less than 0.1 μM)” and the Emax was 65 to 85%. In addition, in assay [2], the “M4 Activity” value is reported as “xxx (activity was measured to be less than 0.1 μM)” and the Emax was more than 85%.

In the case of `CCOC(=O)N1CCC(N2CCC3(CC2)CN(C(C)=O)c2ccc(-c4cccnc4)cc23)CC1` [compound 234], in assay [1], the “M1 Activity” value was “xxx (activity was measured to be less than 0.1 μM)” and the Emax lay within 65 to 85%. Also, in assay [2], the “M4 Activity” value is “xxx (activity was measured to be less than 0.1 μM)” and the Emax was in the range of 65 to 85%.
